Measurements as given in ChEMBL document CHEMBL1152620, “Carbonic anhydrase inhibitors. Diazenylbenzenesulfonamides are potent and selective inhibitors of the tumor-associated isozymes IX and XII over the cytosolic isoforms I and II” (Bioorg Med Chem, 2009).

What was measured:
[1] = molecular target: Carbonic anhydrase 9 (Homo sapiens, UniProt Q16790); type: cell-based, Sf9
Description: Inhibition of human recombinant CA9 catalytic domain expressed in Sf9 cells by stopped flow CO2 hydration assay

[2] = molecular target: Carbonic anhydrase 12 (Homo sapiens, UniProt O43570); assay: Inhibition of human recombinant CA12 catalytic domain expressed in Sf9 cells by stopped flow CO2 hydration assay
[3] = Solubility in water; type: physicochemical; conditions: buffer

Carbonic anhydrase 12, sequence (O43570 whole entry, the tested form may be a part): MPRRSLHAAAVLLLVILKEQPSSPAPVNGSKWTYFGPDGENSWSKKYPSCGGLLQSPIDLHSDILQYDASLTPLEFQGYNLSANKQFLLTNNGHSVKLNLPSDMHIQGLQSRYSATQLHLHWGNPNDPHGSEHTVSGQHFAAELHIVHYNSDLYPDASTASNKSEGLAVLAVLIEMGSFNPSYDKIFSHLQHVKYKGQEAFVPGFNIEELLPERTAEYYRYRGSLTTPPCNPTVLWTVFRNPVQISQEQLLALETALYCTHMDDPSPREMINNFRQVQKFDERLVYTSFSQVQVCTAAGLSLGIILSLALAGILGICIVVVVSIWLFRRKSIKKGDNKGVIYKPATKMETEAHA

SMILES	Ki [1] [nM]	Ki [2] [nM]	solubility [3]
Nc1ccc(/N=N/c2cccc(S(N)(=O)=O)c2)cc1	5.9	–	–
CN(CS(=O)(=O)O)c1ccccc1 [SODIUM(METHYL(PHENYL)AMINO)METHANESULFONATE]	5850	–	–
CN(C)c1ccc(/N=N/c2ccc(S(N)(=O)=O)cc2)cc1	–	7.9	–
NS(=O)(=O)c1ccc(/N=N/c2ccc(NCS(=O)(=O)[O-])cc2)cc1.[Na+]	5.4	–	Soluble
NS(=O)(=O)c1cccc(/N=N/c2ccc(O)cc2)c1	6.1	7.3	–
NS(=O)(=O)c1cccc(/N=N/c2ccc(NCS(=O)(=O)O)cc2)c1	57	–	–
NS(=O)(=O)c1ccc(/N=N/c2ccc(O)cc2)cc1	6.4	5	–
CN(CS(=O)(=O)[O-])c1ccc(/N=N/c2ccc(S(N)(=O)=O)cc2)cc1.[Na+]	3.5	–	Soluble
O=S(=O)(O)CNc1ccccc1 [SODIUM PHENYLAMINOMETHANESULFONATE]	5100	–	–
CN(C)c1ccc(/N=N/c2cccc(S(N)(=O)=O)c2)cc1	6.4	–	–
CN(CS(=O)(=O)O)c1ccc(/N=N/c2cccc(S(N)(=O)=O)c2)cc1	63	–	–
Nc1ccc(/N=N/c2ccc(S(N)(=O)=O)cc2)cc1	6	–	–
CNc1ccc(/N=N/c2ccc(S(N)(=O)=O)cc2)cc1	4.9	69.4	–
